Columns and labels:
TAOK2 [1] = target: T1, TAOK2 (Rattus norvegicus, UniProt Q9JLS3); assay: Radiometric kinase assay; assay type: biochemical; details: determined radiometrically; MBP, γ-labeled ATP
T1 construct: made in house
T1 sequence (Q9JLS3 1-320 limits assumed): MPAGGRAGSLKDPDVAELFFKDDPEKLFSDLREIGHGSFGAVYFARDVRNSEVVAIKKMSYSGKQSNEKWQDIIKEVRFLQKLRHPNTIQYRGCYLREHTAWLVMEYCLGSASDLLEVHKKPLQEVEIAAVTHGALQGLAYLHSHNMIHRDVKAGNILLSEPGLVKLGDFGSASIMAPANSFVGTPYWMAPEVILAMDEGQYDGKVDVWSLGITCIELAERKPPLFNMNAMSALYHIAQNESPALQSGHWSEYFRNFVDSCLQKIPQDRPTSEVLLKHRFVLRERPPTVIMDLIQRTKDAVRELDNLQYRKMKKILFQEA
Procedure: Radiometric activity assays of selected compounds against TAOK2 were conducted. A reaction solution of 0.02 mg/ml TAOK2, 50 mM MgCl2, 50 mM HEPES pH 7.5, 1 mg/ml MBP, and increasing compound concentration was made. The compound/DMSO solution was 5% by volume in the final reaction mixture. An ATP solution of 1:20 0.1 μCi/ml 32P -labeled ATP:1 mg/ml ATP was made. 10 μl of ATP solution was added to 50 μl of reaction solution, and allowed to react for 30 minutes. Reactions were stopped by blotting onto filter paper, then submerging in10% trifluoroacetic acid (TFA). Samples were washed 4 times in TFA, then put into scintillation vials. 5 ml Complete Counting Cocktail 3a70B (Research Products International Corp.) was added, and the vials were counted on a Beckman scintillation counter for 10 minutes.
Compounds SW034538 and SW083688 were both selective in the DSF measurements and effective in the GFP-LC3 degradation assays. These compounds were then chosen for radiometric analysis to determine their IC50 values (Table 1). TAOK2 was incubated with inhibitor, MBP, and γ-labeled ATP and allowed to react for 10 minutes. The concentrations of MBP and ATP were chosen such that the reaction was kept in the linear range for the duration of the experiment. […] IC50 value estimates were calculated from the results of the 200 k rescreen described above. […]

TAOK2 [2] = target: T1, TAOK2; assay: Kinase-Glo high-throughput screen / re-screen of TAOK2 activity (MBP substrate); assay type: biochemical; details: estimate from HTS re-screen at 1, 3.3 and 10 μM
Procedure: TAOK2 activity was screened in a high-throughput fashion using Kinase-Glo (Promega). A 20 μL, solution of 50 mM HEPES pH 7.4, 50 mM MgCl2, 1.27 mg/ml MBP and 0.005 mg/ml TAOK2 was added to each well of a 384 well Corning plate using a Biotek MultiFlo dispenser. 0.2 μl of compound (columns 3 to 22, 50 μM), DMSO negative control (columns 2, 23, and 24), or staurosporine positive control (column 1, 43.4 μM) were then added to each well with a Biomek Liquid handler. 10 μl of 50 μg/ml ATP solution was added to each well with a Labsystems Multidrop384. The plates were incubated at RT for 100 minutes. 20 μl Kinase Glo (Promega) was added to each well, and allowed to incubate for 10minutes under agitation. Luminescence was read on an Envision Multilabel plate reader.
After cherry picking primary hits, the selected compounds were assayed in a limited dose-response format (10, 3.3, and 1 μM) in triplicate using the primary enzymatic assay for TAOK2. The data for each assay well was normalized to the neutral controls. The normalized activity values (replicates) for each compound in each assay were then condensed to a single value (condensed activity) using the “Robust Condensing” method in Genedata Screener®. The condensed activity is the most representative single value of the triplicates. In general, the triplicates were pre-condensed into a pair of values as follows:
In order to study the relationship between TAOK2 and both cancer and autophagy, a high-throughput screen was performed using a 200,000 compound library to discover novel small-molecule kinase inhibitors (FIG. 1A-D). Phosphorylation reactions were performed in a 384 well format against the generic kinase substrate Myelin Basic Protein (MBP) with the addition of compound. Kinase-Glo (Promega) was then added to each well to detect remaining ATP concentration. Thus, inhibitory compounds would decrease TAOK2 activity, which would increase both remaining ATP concentration and luminescence in those wells.
After the initial screen, 1645 compounds were identified with inhibition greater than three σ above the mean DMSO control (FIG. 1A). The Z′ factor of the initial screen across all plates was 0.77, indicating high significance (FIG. 1B). These compounds were then re-screened in triplicate under the same conditions, with the compounds being assayed at three concentrations (1 μM, 3.3 μM, and 10 μM, FIG. 1C, D). 432 compounds were identified after the re-screen with average inhibitions greater than 10 sigma at the 10 μM concentration. The Z′ factor of the confirmation screen was 0.52, again indicating high significance.

Row | SMILES | IC50 (TAOK2 [1]) [nM] | IC50 (TAOK2 [2]) [nM]
1 | CCC(=O)Nc1nc(C)c(-c2csc(Nc3cc(OC)ccc3OC)n2)s1 [SW034538] | 300 | –
2 | CS(=O)(=O)c1ccc2nc(NC(=O)CCCOc3ccc(Cl)cc3)sc2c1 [SW172006] | – | 5000
3 | CCOCCCn1c(=S)[nH]c2cc(C(=O)NCC3COc4ccccc4O3)ccc2c1=O (stereo not drawn) [SW083688] | 1300 | –

Reference: patent US20170340636A1, “COMPOSITIONS AND METHODS FOR INHIBITION OF AUTOPHAGY” (Board of Regents, The University of Texas System, priority 2016, published 2017)
